Assay results taken from patent US20030083271A1, “Topoisomerase I selective cytotoxic sugar derivatives of indolopyrrolocarbazoles” (priority 2001, published 2003).

How the values were obtained:
P388/CPT45 cells = assay: Cytotoxicity in camptothecin-resistant P388/CPT45 cells relative to parental P388 (selectivity index R/S); format: cell-based, murine; conditions: IC50 P388/CPT45 cells divided by IC50 parental P388 cells
Description: The present invention includes fluoro sugar and other sugar derivatives of indolopyrrolocarbazoles of formula (I), as defined above. […] Most importantly, the instant invention describes topo I active compounds, related to compounds disclosed in WO 98/07433 and co-pending U.S. application, Ser. No. 08/914566 (both herein incorporated by reference), which display a surprising and unexpected selectivity index when evaluated for cytotoxicity in certain cell lines which express normal levels of topo I required for cell proliferation, compared with cell lines that are deficient in or underexpress topo I. Said “selectivity index” (R/S) was generated by dividing the cytotoxic IC50 of a particular compound against a camptothecin-resistant murine leukemia cell line, P388/CPT45, by the IC50 generated when using the parent P388 cell line. […] A level of selectivity was judged to be advantageous and beneficial in, for example, modulating potential undesirable side effects and/or toxicity. The compounds of the present invention were selected from compounds generically disclosed in WO 98/07433 and co-pending U.S. patent application, Ser. No. 08/914566, on the basis of an unexpected and unpredictable selectivity index (see Table I and II). […] Simple changes in the substitution of the sugar portion or the indolopyrrolocarbazole portion of the present invention will change the selectivity. This change in selectivity is not predictable by one skilled in the art.
(§1) Similarly, P338 murine leukemia cells were maintained in RPMI 1640 supplemented with 20% fetal bovine serum and 10 μM 2-mercaptoethanol. A camptothecin resistant subline, P388/CPT45, was selected for resistance to camptothecin and is over 1000-fold resistant to this compound (Woessner, et al. Oncol. Res. 1992, 4, 481-488).
(§2) In vitro cytotoxicity was assessed in tissue culture cells by MTS (3-(4,5-dimethylthiazol-2-yl)-5-(3-carboxymethoxyphenyl)-2-(4-sulphenyl)-2H-tetrazolium, inner salt) assay (Riss and Moravec, Mol. Biol. Cell 1992, 3 (Suppl.), 184a). Cells were plated at 8,000 cell/well in 96 well microtiter plates and 24 hours later serial dilutions of the test compounds were made and added to the cells. The cells were incubated at 37° C. for 72 hours, at which time the tetrazolium dye, MTS at 333 μg/ml (final concentration), in combination with the electron coupling agent phenazine methosulfate at 25 μM (final concentration) was added. A dehydrogenase enzyme in live cells reduces the MTS to a form that absorbs light at 492 nm which can be quantitated spectrophotometrically. The greater the absorbance the greater the number of live cells. The results are expressed as an IC50, which is the drug concentration required to inhibit cell proliferation (i.e., absorbance at 492 nm) to 50% of that of untreated control cells.
The selectivity index (R/S) is defined as the ratio obtained by dividing the IC50 value obtained using P388/CPT45 cells by that obtained using parental P388 cells. The R/S ratios used to determine the relative topo I selectivity of selected compounds of this invention are shown below in Table I.

[1] = biological target: T1, purified human topoisomerase I (Homo sapiens, UniProt P11387); assay: Topoisomerase I-mediated single strand DNA break induction (in vitro); format: biochemical; conditions: median effect concentration for inducing single-strand breaks in the DNA substrate; read-out: Topo I EC50
T1 construct: purchased Topogen
T1 sequence (P11387 1-765): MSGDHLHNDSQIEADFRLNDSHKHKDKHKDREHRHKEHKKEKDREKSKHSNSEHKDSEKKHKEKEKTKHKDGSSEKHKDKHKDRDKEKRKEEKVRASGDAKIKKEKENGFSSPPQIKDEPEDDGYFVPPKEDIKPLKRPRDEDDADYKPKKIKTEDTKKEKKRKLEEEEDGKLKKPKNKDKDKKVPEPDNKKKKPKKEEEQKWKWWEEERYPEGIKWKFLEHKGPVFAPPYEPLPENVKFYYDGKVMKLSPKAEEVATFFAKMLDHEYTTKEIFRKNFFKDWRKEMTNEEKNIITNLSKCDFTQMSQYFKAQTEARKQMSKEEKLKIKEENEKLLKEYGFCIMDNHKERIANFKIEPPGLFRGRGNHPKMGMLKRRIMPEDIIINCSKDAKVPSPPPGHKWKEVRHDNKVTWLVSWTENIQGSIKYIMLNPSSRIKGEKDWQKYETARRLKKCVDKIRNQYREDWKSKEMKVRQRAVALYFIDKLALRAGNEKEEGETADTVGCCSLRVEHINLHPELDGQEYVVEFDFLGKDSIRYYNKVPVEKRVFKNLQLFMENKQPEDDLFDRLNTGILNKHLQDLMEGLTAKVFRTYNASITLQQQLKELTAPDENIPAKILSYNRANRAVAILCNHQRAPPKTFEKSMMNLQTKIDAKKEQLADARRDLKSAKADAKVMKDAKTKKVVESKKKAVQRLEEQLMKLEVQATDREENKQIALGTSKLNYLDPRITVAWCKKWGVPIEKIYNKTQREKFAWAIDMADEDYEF
Procedure: Topoisomerase I activity was measured as described below. The procedure for assaying compound-induced, topoisomerase I-mediated single strand breaks in DNA was essentially that described by Hsiang, et al., (J. Biol. Chem. 1985, 260, 14873-14878). Samples dissolved in 100% DMSO as either […] or 10 mg/ml solutions, unless otherwise stated, were diluted in Tris-EDTA buffer. Marine bacteriophage PM2 DNA (Boehringer Mannheim) was also diluted in Tris-EDTA buffer to a concentration of 0.02 μg/μl. Different dilutions of the compound being evaluated were mixed with diluted DNA and this mixture was added to […] (one unit of enzyme activity is defined as the amount capable of relaxing 100 ng of supercoiled DNA in approximately 30 minutes at 37° C.) aliquots of purified human topoisomerase I (Topogen) in 2X reaction buffer to start the reaction. The compound-DNA-enzyme mixture was incubated for 30 minutes at 37° C. before stopping the reaction with warm stop buffer containing sodium dodecyl sulfate and proteinase K (Sigma). These mixtures were allowed to incubate at 37° C. for another 10 minutes, at which time the mixtures were removed from the waterbath and extracted with a 24:1 mixture of chloroform/isoamyl alcohol. Following centrifugation, aliquots of the aqueous phases were placed in wells of a 0.9% agarose (SeaKem) gel in Tris-borate buffer containing 0.5 μg/ml of ethidium bromide and subjected to electrophoresis for 15 hours to separate the different topological isomers and nicked and broken DNAs. After destaining the gel in water, the ethidium bromide stained DNA reaction products were visualized by exposing the gel to UV irradiation. Negatives of the photographs of the irradiated gels were scanned with a densitometer and areas under the peaks were calculated in order to obtain percent single strand DNA break formation for each sample. A median effective concentration (EC50) was obtained for each compound by interpolation between points of the resulting dose-effect curve which defines the potency of the compound for its effect in inducing topoisomerase I-mediated single strand breaks in DNA. The topoisomerase I activities for certain compounds of the present invention are shown below in Table I.

[2] = test system: P388 murine leukemia cells; assay: In vitro cell-based cytotoxicity, parental P388 cells; conditions: Mus musculus, 72 h, median cytotoxic concentration, 3 days continuous exposure
Procedure: The proliferation inhibition activity against the murine P388 cell line was measured as follows. Evaluation of a soluble tetrazolium/formazan assay for cell growth and drug sensitivity in culture, using human and other tumor cell lines, was done according to the procedure described in Cancer Res. 1988, 48, 4827-4833. Cells were plated at 4000 cells/well in 96 well microtiter plates and 24 h later drugs were added and serially diluted. The cells were incubated at 37° C. for 72 h, at which time a tetrazolium dye, XTT, containing phenazine methosulfate was added. A dehydrogenase enzyme in live cells reduced the XTT to a form that absorbs light at 450 nm, which could be quantitated spectrophotometrically. The greater the absorbance the greater the number of live cells. The results are expressed as an IC50, which is the drug concentration required to inhibit cell proliferation (i.e., absorbance at 450 nm) to 50% of that of untreated control cells.
as §1, §2
The cytotoxic activity for certain compounds of the present invention, in both parental P388 and the camptothecin-resistant P388/CPT45 cell lines are shown below in Table I.

EC50 [1] [nM] | SMILES | Selectivity Index R/S (P388/CPT45 cells) | IC50 [2] [nM]
50 | O=C(O)CSC[C@H]1O[C@@H](n2c3ccc(F)cc3c3c4c(c5c6cc(F)ccc6[nH]c5c32)C(=O)NC4=O)[C@H](O)[C@@H](O)[C@@H]1O [Example 1] | 101.7 | 57
20 | [N-]=[N+]=N[C@H]1[C@H](O)[C@@H](O)[C@H](n2c3ccc(F)cc3c3c4c(c5c6cc(F)ccc6[nH]c5c32)C(=O)NC4=O)O[C@@H]1CO [Example 10] | 121.3 | 68
60 | O=C1NC(=O)c2c1c1c3cc(F)ccc3sc1c1c2c2cc(F)ccc2n1[C@@H]1O[C@H](CF)[C@@H](O)[C@H](O)[C@H]1O [Example 3] | 110.4 | 16
50 | O=C1NC(=O)c2c1c1c3cc(F)c(F)cc3[nH]c1c1c2c2cc(F)c(F)cc2n1[C@@H]1O[C@H](CO)[C@@H](F)[C@H](O)[C@H]1O [Example 28, 12-[4-Deoxy-4-fluoro-β-D-glucopyranosyl]-2,3,9,10-tetrafluoro-12,13-dihydro-5H-indolo[2,3-a]pyrrolo[3,4-c]carbazole-5,7(6H)-dione] | 499.2 | 4
450 | O=C1NC(=O)c2c1c1c3cc(F)c(F)cc3[nH]c1c1c2c2cc(F)c(F)cc2n1[C@@H]1O[C@H](CF)C[C@@H](F)[C@H]1O [Example 17, 12-[3,6-Difluoro-3,4,6-trideoxy-β-D-allopyranosyl]-2,3,9,10-tetrafluoro-12,13-dihydro-5H-indolo[2,3-a]pyrrolo[3,4-c]carbazole-5,7(6H)-dione] | 179.2 | 41
100 | O=C1NC(=O)c2c1c1c3cc(F)ccc3[nH]c1c1c2c2cc(F)ccc2n1[C@H]1O[C@H](CF)[C@@H](O)[C@H](O)[C@H]1O [Example 39] | 5.0 | 235
60 | [N-]=[N+]=N[C@H]1[C@@H](O)[C@@H](O)[C@H](n2c3ccc(F)cc3c3c4c(c5c6cc(F)ccc6[nH]c5c32)C(=O)NC4=O)O[C@@H]1CF [Example 19] | >195.2 | < 3
10 | C[S+]([O-])C[C@H]1O[C@H](n2c3ccc(F)cc3c3c4c(c5c6cc(F)ccc6[nH]c5c32)C(=O)NC4=O)[C@H](O)[C@@H](O)[C@@H]1O (stereo partly drawn) [Example 7] | >116.4 | 76
220 | O=C1NC(=O)c2c1c1c3cc(F)ccc3[nH]c1c1c2c2cc(F)ccc2n1[C@@H]1O[C@H](CF)[C@H](O)[C@H](O)[C@H]1O [Example 4, 12-[6-Deoxy-6-fluoro-β-D-galactopyranosyl]-3,9-difluoro-12,13-dihydro-5H-indolo[2,3-a]pyrrolo[3,4-c]carbazole-5,7(6H)-dione] | 110.9 | 12
10 | O=C1NC(=O)c2c1c1c3cc(F)ccc3[nH]c1c1c2c2cc(F)ccc2n1[C@@H]1O[C@H](CO)C(F)(F)[C@H](O)[C@H]1O [Example 25, 12-[4,4-Difluoro-4-deoxy-β-D-glucopyranosyl]-3,9-difluoro-12,13-dihydro-5H-indolo[2,3-a]pyrrolo[3,4-c]carbazole-5,7(6H)-dione] | 381.5 | 3
240 | O=C1NC(=O)c2c1c1c3ccc(F)cc3[nH]c1c1c2c2ccc(F)cc2n1[C@@H]1O[C@H](CO)[C@@H](O)[C@H](O)[C@H]1O [Example 37] | 8.7 | 260
80 | O=C1NC(=O)c2c1c1c3cc(F)c(F)cc3[nH]c1c1c2c2cc(F)c(F)cc2n1[C@@H]1O[C@H](CF)[C@@H](F)[C@H](O)[C@H]1O [Example 22, 12-[4,6-Difluoro-4,6-dideoxy-β-D-glucopyranosyl]-2,3,9,10-tetrafluoro-12,13-dihydro-5H-indolo[2,3-a]pyrrolo[3,4-c]carbazole-5,7(6H)-dione] | 287.7 | 14
70 | NC[C@H]1O[C@@H](n2c3ccc(F)cc3c3c4c(c5c6cc(F)ccc6sc5c32)C(=O)NC4=O)[C@H](O)[C@@H](O)[C@@H]1O [Example 6] | >116.3 | 68
30 | O=C1NC(=O)c2c1c1c3cc(F)c(F)cc3[nH]c1c1c2c2cc(F)c(F)cc2n1[C@@H]1O[C@H](CO)C(F)(F)[C@H](O)[C@H]1O [Example 14] | 140.3 | 6
80 | O=C1NC(=O)c2c1c1c3cc(F)ccc3[nH]c1c1c2c2cc(F)ccc2n1[C@@H]1O[C@H](CO)C[C@H](O)[C@H]1O [Example 31, 12-[4-Deoxy-β-D-glucopyranosyl]-3,9-difluoro-12,13-dihydro-5H-indolo[2,3-a]pyrrolo[3,4-c]carbazole-5,7(6H)-dione] | 720.7 | 4
